# Measured values from patent publication US8192962B2, “Processes for detecting toxic substances” (Daikin Industries, Ltd., priority 2001, dated 2012).
# Tested on: DNA repair protein genes
# Experiment: DNA chip mRNA expression in yeast, DNA repair protein genes (Table 3)
# Format: cell-based, Saccharomyces cerevisiae S288C
# Conditions: incubated two hours, concentrations as in the 1st table
# Protocol: Yeast (Saccharomyces cerevisiae S288C (α SUC2mal mel gap2 CUP1)) were incubated at 25° C. on YPD medium (yeast extract 1%, polypepton 2%, glucose 2%). One of toxic chemical substances was added to the cells at logarithmic growth phase, and the cells were further incubated for two hours. Cells were cultured without any chemical substance in the same condition, and were used as control. Concentrations of the chemical substances were defined to inhibit the growth of the yeast but not lead to death.
# After completion of the incubation, the culture was centrifuged to collect the cells. To the cells, sodium acetate buffer (50 mM sodium acetate, 10 mM EDTA, 1% SDS) was added, and the mixture was shaken at 65° C. for five minutes, followed by returning to room temperature, and obtaining the supernatant, of which the procedures were repeated two times. To the supernatant, ½ amount of a solution of phenol/chloroform was added, and the mixture was centrifuged to give a supernatant, which was added with an equal amount of chloroform, and the mixture was centrifuged to give a supernatant. To the supernatant, an equal amount of isopropanol containing 0.3 M sodium acetate was added, and the mixture was allowed to stand at room temperature for 30 minutes, after which the mixture was centrifuged to give a sediment of the whole RNAs. Seventy % ethanol was added to the sediment, and the mixture was again centrifuged to give a sediment, which was then dried and dissolved in water. mRNA was isolated from the whole RNAs as followings. In view of the fact that a poly A chain is attached to the 3′ terminus of mRNA, a polynucleotide having a poly T structure which was immobilized on the surface of latex beads was used to trap the mRNA, and then the mRNA was washed and eluted with spine column (Oligotex-dT30<Super>mRNA Purification Kit, Takara). Reverse transcription of the mRNA was conducted with a reverse transcriptase (Super Script II Reverse Transcriptase; catalogue No. 18064-014, GibcoBRL) using fluorescence-labeled nucleotides to give cDNAs that were introduced with Cy3-dUTP or Cy5-dUTP during the reverse transcription.
# The labeled cDNAs were dissolved in TE buffer (10mM Tris-HCl/1 mM EDTA, pH8.0), and the solution was dropped on the DNA chip containing the whole genes of yeast (DNA Chip Research Inc. Japan) so that the cDNAs were hybridized on the DNA chip at 65° C. for over 12 hours. The fluoresces intensity of the DNA chip was read with a scanner, and the ratio relative to the fluorescence intensity resulting from the absence of chemical substance was estimated as the following, which is shown in Tables 1 to 9: […]
smiles,measurement,setting,value
"[Cl][Hg][Cl] [(3), HgCl2]",The level of expressed mRNA in the presence of chemical substance/The level of expressed mRNA in the absence of chemical substance,yeast gene YAL015C,1.7
same,The level of expressed mRNA in the presence of chemical substance/The level of expressed mRNA in the absence of chemical substance,yeast gene YAR007C,0.8
same,The level of expressed mRNA in the presence of chemical substance/The level of expressed mRNA in the absence of chemical substance,yeast gene YBL019W,0.7
same,The level of expressed mRNA in the presence of chemical substance/The level of expressed mRNA in the absence of chemical substance,yeast gene YBR073W,0.9
same,The level of expressed mRNA in the presence of chemical substance/The level of expressed mRNA in the absence of chemical substance,yeast gene YBR272C,1.3
same,The level of expressed mRNA in the presence of chemical substance/The level of expressed mRNA in the absence of chemical substance,yeast gene YCR014C,0.8
same,The level of expressed mRNA in the presence of chemical substance/The level of expressed mRNA in the absence of chemical substance,yeast gene YDL017W,1.2
same,The level of expressed mRNA in the presence of chemical substance/The level of expressed mRNA in the absence of chemical substance,yeast gene YDL059C,1.4
same,The level of expressed mRNA in the presence of chemical substance/The level of expressed mRNA in the absence of chemical substance,yeast gene YDL200C,1.2
same,The level of expressed mRNA in the presence of chemical substance/The level of expressed mRNA in the absence of chemical substance,yeast gene YDR054C,0.7
same,The level of expressed mRNA in the presence of chemical substance/The level of expressed mRNA in the absence of chemical substance,yeast gene YDR369C,2.4
same,The level of expressed mRNA in the presence of chemical substance/The level of expressed mRNA in the absence of chemical substance,yeast gene YEL019C,0.3
same,The level of expressed mRNA in the presence of chemical substance/The level of expressed mRNA in the absence of chemical substance,yeast gene YEL037C,0.9
same,The level of expressed mRNA in the presence of chemical substance/The level of expressed mRNA in the absence of chemical substance,yeast gene YER162C,1.0
same,The level of expressed mRNA in the presence of chemical substance/The level of expressed mRNA in the absence of chemical substance,yeast gene YFL014W,5.7
same,The level of expressed mRNA in the presence of chemical substance/The level of expressed mRNA in the absence of chemical substance,yeast gene YGL058W,0.6
same,The level of expressed mRNA in the presence of chemical substance/The level of expressed mRNA in the absence of chemical substance,yeast gene YGL091C,1.0
same,The level of expressed mRNA in the presence of chemical substance/The level of expressed mRNA in the absence of chemical substance,yeast gene YGL127C,1.3
same,The level of expressed mRNA in the presence of chemical substance/The level of expressed mRNA in the absence of chemical substance,yeast gene YGL163C,0.6
same,The level of expressed mRNA in the presence of chemical substance/The level of expressed mRNA in the absence of chemical substance,yeast gene YGL249W,0.5
same,The level of expressed mRNA in the presence of chemical substance/The level of expressed mRNA in the absence of chemical substance,yeast gene YGR180C,1.9
same,The level of expressed mRNA in the presence of chemical substance/The level of expressed mRNA in the absence of chemical substance,yeast gene YGR231C,0.7
same,The level of expressed mRNA in the presence of chemical substance/The level of expressed mRNA in the absence of chemical substance,yeast gene YGR258C,0.7
same,The level of expressed mRNA in the presence of chemical substance/The level of expressed mRNA in the absence of chemical substance,yeast gene YHR164C,0.9
same,The level of expressed mRNA in the presence of chemical substance/The level of expressed mRNA in the absence of chemical substance,yeast gene YIL036W,1.3
same,The level of expressed mRNA in the presence of chemical substance/The level of expressed mRNA in the absence of chemical substance,yeast gene YIL072W,1.1
same,The level of expressed mRNA in the presence of chemical substance/The level of expressed mRNA in the absence of chemical substance,yeast gene YIL143C,1.1
same,The level of expressed mRNA in the presence of chemical substance/The level of expressed mRNA in the absence of chemical substance,yeast gene YIL153W,1.3
same,The level of expressed mRNA in the presence of chemical substance/The level of expressed mRNA in the absence of chemical substance,yeast gene YIR002C,0.5
same,The level of expressed mRNA in the presence of chemical substance/The level of expressed mRNA in the absence of chemical substance,yeast gene YJL026W,2.9
same,The level of expressed mRNA in the presence of chemical substance/The level of expressed mRNA in the absence of chemical substance,yeast gene YJR046W,1.2
same,The level of expressed mRNA in the presence of chemical substance/The level of expressed mRNA in the absence of chemical substance,yeast gene YJR052W,1.1
same,The level of expressed mRNA in the presence of chemical substance/The level of expressed mRNA in the absence of chemical substance,yeast gene YKL145W,1.2
same,The level of expressed mRNA in the presence of chemical substance/The level of expressed mRNA in the absence of chemical substance,yeast gene YLR103C,1.1
same,The level of expressed mRNA in the presence of chemical substance/The level of expressed mRNA in the absence of chemical substance,yeast gene YLR233C,2.0
same,The level of expressed mRNA in the presence of chemical substance/The level of expressed mRNA in the absence of chemical substance,yeast gene YLR288C,1.6
same,The level of expressed mRNA in the presence of chemical substance/The level of expressed mRNA in the absence of chemical substance,yeast gene YML032C,1.1
same,The level of expressed mRNA in the presence of chemical substance/The level of expressed mRNA in the absence of chemical substance,yeast gene YML058W,5.8
same,The level of expressed mRNA in the presence of chemical substance/The level of expressed mRNA in the absence of chemical substance,yeast gene YMR035W,1.5
same,The level of expressed mRNA in the presence of chemical substance/The level of expressed mRNA in the absence of chemical substance,yeast gene YMR072W,1.4
same,The level of expressed mRNA in the presence of chemical substance/The level of expressed mRNA in the absence of chemical substance,yeast gene YMR096W,1.1
same,The level of expressed mRNA in the presence of chemical substance/The level of expressed mRNA in the absence of chemical substance,yeast gene YMR284W,0.5
same,The level of expressed mRNA in the presence of chemical substance/The level of expressed mRNA in the absence of chemical substance,yeast gene YNL213C,0.9
same,The level of expressed mRNA in the presence of chemical substance/The level of expressed mRNA in the absence of chemical substance,yeast gene YNL250W,0.8
same,The level of expressed mRNA in the presence of chemical substance/The level of expressed mRNA in the absence of chemical substance,yeast gene YNL261W,0.6
same,The level of expressed mRNA in the presence of chemical substance/The level of expressed mRNA in the absence of chemical substance,yeast gene YNL312W,1.6
same,The level of expressed mRNA in the presence of chemical substance/The level of expressed mRNA in the absence of chemical substance,yeast gene YOL043C,0.8
same,The level of expressed mRNA in the presence of chemical substance/The level of expressed mRNA in the absence of chemical substance,yeast gene YOR005C,1.0
same,The level of expressed mRNA in the presence of chemical substance/The level of expressed mRNA in the absence of chemical substance,yeast gene YOR386W,1.3
same,The level of expressed mRNA in the presence of chemical substance/The level of expressed mRNA in the absence of chemical substance,yeast gene YPL022W,0.7
same,The level of expressed mRNA in the presence of chemical substance/The level of expressed mRNA in the absence of chemical substance,yeast gene YPL164C,1.1
same,The level of expressed mRNA in the presence of chemical substance/The level of expressed mRNA in the absence of chemical substance,yeast gene YPL194W,0.4
same,The level of expressed mRNA in the presence of chemical substance/The level of expressed mRNA in the absence of chemical substance,yeast gene YPR025C,0.6
